# Assay results: patent US20060140957A1, “Eph/ephrin mediated modulation of cell adhesion and tumour cell metastasis” (priority 2003, published 2006)
# Experiments:
# [1] = tested on: EphA3/HEK 293 cells; experiment: Cleavage and internalisation of Alexa-labelled protein from protein A Dynabeads; format: cell-based, human; conditions: 5 mM, 4 h prior to bead addition
# Experimental: (§1) FIG. 6. Eph/ephrin mediated cell-cell repulsion, but not adhesion leads to ephrinA5 cleavage by a metalloprotease. • (A) Alexa ephrinA5-Fc (I, III) or Alexa EphA1 Fc (II) control proteins, conjugated onto protein A-coated Dynabeads were added to cultures of EphA3/HEK 293 cells (I, II) or LK63 cells (III). Cleavage and internalisation of the fluorescent proteins was monitored by confocal microscopy. Selected images of confocal time-lapse experiments (1 frame/min) are shown. Alexa 546 fluorescence is represented in white and outlines cells in panels I, while the cells in panels II, III appear dark-grey or black. • (B) Prior to stimulation (30 min) with Alexa ephrinA5-Fc coated beads (I, II) or with Alexa Fc control beads (III), parallel cultures of EphA3/293 cells were treated for 4 h with 5 mM 1′,10′-O-Phenanthroline (II) or left untreated (I, III). […] Using an EphA3-Fc construct, ephrin-A5 was immuno precipitated from lysates of EphA3/HEK 293 cells or LK63 cells, which had been treated for indicated times with 7.5 ì g/ml of pre-clustered (+X-lnk) or non-clustered (−X-lnk) ephrin-A5 Fc, and analysed for ephrin cleavage by Western blot with anti-ephrinA5 antibody. […]
# Eph/ephrin stimulation was analysed in-situ by time-lapse confocal microscopy and immunocytochemistry as described (Lawrenson et al., 2002). […]
# [2] = tested on: EphA3/HEK 293 cells; experiment: Biochemical demonstration of ephrin cleavage (Western blot); format: cell-based, human; conditions: cells stimulated with clustered ephrin-A5 Fc
# Experimental: as §1, with “antibody. To assess cleavage by metalloproteases, parallel cultures were treated with 1′,10′-O-phenanthroline (+OPN) or left untreated.” for “antibody.”
# [3] = tested on: EphA3/A02 malignant melanoma cells; experiment: Phosphatase inhibition, anti-EphA3 IP / anti-phosphotyrosine western blot; format: cell-based; conditions: increasing amounts
# Experimental: (§2) FIG. 8. Phosphatase inhibition triggers EphA3 phosphorylation in LK63 cells • (A) Anti-EphA3 immunoprecipitates from TritonX100 lysates of EphA3/HEK 293, EphA3/AO2 melanoma cells and LK63 leukaemia cells were treated with either crosslinked ephrin-A5 or increasing concentrations of sodium pervanadate as indicated, and analysed by anti-phosphotyrosine western blot. • (B) Anti-EphA3 immunoprecipitates from TritonX100 lysates of vanadate or hydrogen peroxide-treated EphA3/HEK 293 (left panel) and EphA3/AO2 melanoma cells(right panel) were analysed as described in (A).
# [4] = tested on: EphA3/HEK 293 cells; experiment: as above; format: cell-based, human; conditions: increasing amounts
# Experimental: as §2
# [5] = tested on: LK63 cells; experiment: Cell morphology on ephrinA5-Fc coated glass coverslips (rhodamin-phalloidin); format: cell-based, human; conditions: 4 h
# Experimental: FIG. 1. Surface-bound ephrinA5 causes either cell repulsion or cell adhesion of EphA3-positive tumour cells. • (A) EphA3-positive LK63 human pre-B leukemia cells and LiBr melanoma cells were plated onto glass coverslips coated with ephrinA5-Fc (ephrin, 10 μg/ml) or fibronectin (FN, 10 μg/ml). After 4h the cytoskeleton of adherent, fixed cells was stained with rhodamin-phalloidin. Pictures of representative fluorescence images are shown; the second column represents magnified sections of the first. Scale bar: 20 ì m. • (B) LK63 adhesion and LiBr de-adhesion to surface-bound ephrinA5 are dose-dependent. […] After 4-hour incubation, adherent cells, withstanding rigorous washing, were quantitated by XTT assay (A492 absorbance). Cell attachment is expressed as a percentage (mean, S.E. from three independent assays) relative to wells containing most adherent cells; ( ), LK63 and ( ), LiBr cells and ( ), LK63, ( ), LiBr cells with ephrin inhibition (+inh.). • (C) LiBr melanoma cells in matrigel-coated Basement Membrane migration chambers (Becton Dickinson, 5×10^4/well) were exposed to chemoattractant, 3T3 conditioned media (cond. media) or 1.5 ì g/ml pre-clustered ephrin-A5 Fc in the bottom chamber, or with 1.5 ì g/mil pre-clustered ephrin-A5 Fc placed together with cells into the top chamber. […]
# [6] = tested on: HEK293 cells expressing w/t EphA3GFP; experiment: FLIM/FRET of EphA3 phosphorylation after phosphatase inhibition; format: cell-based, human; conditions: 30 min, increasing concentrations
# Experimental: (§3) FIG. 7. Pervanadate-induced Eph receptor phosphorylation HEK293 cells, expressing w/t EphA3GFP (A) or 3YF EphA3GFP (B) were incubated with pervanadate (30 min) at indicated concentrations. Fixed cells were examined for FRET as described above. Left, GFP-fluorescence; right, GFP fluorescence lifetime phase maps. Tabulated colour codes indicate GFP lifetimes in ns.
# (§4) GFP EphA3 (w/t or mutant) expressing cells were stimulated, fixed, permeabilised and stained with Cy3-conjugated anti phosphotyrosine monoclonal antibody PY72 prior to mounting onto glass slides using Mowiol (Calbiochem). Fluorescence lifetime imaging microscopy (FLIM) sequences were obtained at 80 MHz with an Olympus IX70 microscope (100/1.4 NA oil immersion lens) and analysed as described (Reynolds, Tischer et al. 2003). A 476-nm argon laser line and narrow-band emission filter (HQ510/20; Chroma) were used for GFP, a 100-W mercury arc lamp with high Q Cy3 filter set (excite, HQ545/30; dicroic, Q580LP; emitter, HQ610/75) for Cy3 and Alexa 546. GFP Fluorescence was detected with a dichroic beamsplitter (Q495 LP; Chroma Technology, Brattleboro, Vt.) and narrow-band emission filter. Stimulated FRET was measured in live 293 cells between transiently expressed ephrin-A2GFP and Alexa546 EphA3-Fc.
# [7] = tested on: HEK293 cells expressing 3YF EphA3GFP; experiment: as above; format: cell-based, human; conditions: 30 min, high concentrations
# Experimental: as §3, §4
# [8] = tested on: LK63 leukaemia cells; experiment: Phosphatase inhibition, anti-EphA3 IP / anti-phosphotyrosine western blot; format: cell-based, human; conditions: highest concentration tested (1 mM)
# Experimental: as §2
Compound,effect on ephrin cleavage and internalisation from Alexa ephrin-A5-Fc beads [1],effect on ephrin cleavage (anti-ephrinA5 Western blot) [2],EphA3 phosphorylation [3],EphA3 phosphorylation [4],LK63 morphology on ephrin-coated coverslips under phosphatase inhibition [5],GFP fluorescent lifetime (receptor phosphorylation) [6],GFP fluorescent lifetime (receptor phosphorylation) [7],EphA3 phosphorylation compared with EphA3/HEK 293 and EphA3/A02 cells [8]
"c1cnc2c(c1)ccc1cccnc12 [1′,10′-O-Phenanthroline]",completely abrogated ephrin cleavage and internalisation,significantly-reduced ephrin cleavage,,,,,,
"OO [H2O2, hydrogen peroxide]",,,dose dependent increase in EphA3 phosphorylation,dose dependent increase in EphA3 phosphorylation,,,,
sodium-pervanadate,,,dose dependent increase in EphA3 phosphorylation,dose dependent increase in EphA3 phosphorylation,lose their characteristic extensions and appear rounded,dramatic dose-dependent decrease in the GFP fluorescent lifetime,retained their GFP lifetime,significantly lower
